Test: xn = mol fraction of the nth substance listed
Settings: 101.3 kPa, Liquid, Vibrating tube method

CCCCn1cc[n+](C)c1.COS(=O)(=O)[O-] [1-butyl-3-methylimidazolium methyl sulfate] + C[N+](=O)[O-]
mass density [kg/m3]
Settings | 293.15 K | 298.15 K | 303.15 K | 308.15 K | 313.15 K | 318.15 K
x1 = 0.0522 | 1158.1 | 1152.1 | 1146.1 | 1140.1 | 1134.1 | 1128.1
x1 = 0.1 | 1168.5 | 1163 | 1157.5 | 1152 | 1146.5 | 1141
x1 = 0.1966 | 1182.1 | 1177.3 | 1172.4 | 1167.6 | 1162.8 | 1158
x1 = 0.3059 | 1191.3 | 1186.9 | 1182.6 | 1178.2 | 1173.9 | 1169.5
x1 = 0.4061 | 1196.9 | 1192.8 | 1188.7 | 1184.7 | 1180.6 | 1176.6
x1 = 0.5025 | 1200.8 | 1196.9 | 1193 | 1189.2 | 1185.3 | 1181.5
x1 = 0.5889 | 1203.5 | 1199.8 | 1196 | 1192.3 | 1188.6 | 1184.9
x1 = 0.6844 | 1205.9 | 1202.2 | 1198.6 | 1195 | 1191.5 | 1187.9
x1 = 0.7832 | 1207.8 | 1204.3 | 1200.8 | 1197.4 | 1193.9 | 1190.4
x1 = 0.8654 | 1209.1 | 1205.7 | 1202.3 | 1199 | 1195.6 | 1192.2
x1 = 0.9289 | 1210 | 1206.7 | 1203.3 | 1200 | 1196.6 | 1193.3

From the NIST ThermoML archive (doi:10.1016/j.jct.2008.09.002)
